From the NIST ThermoML archive (doi:10.1016/j.jct.2018.01.003) come the findings set out here.

This series can be described thus: activity coefficient (dimensionless); of the first substance listed, at infinite dilution; xn = mol fraction of the nth substance listed. The settings on record: 101.33 kPa, Liquid, Chromatography, x1 = 0.

SMILES strings stand for the structures. Numbers after ± are expanded uncertainties.

On to `C1CCCCC1` [cyclohexane] + CCCCCCCCCCCCCC[P+](CCCCCC)(CCCCCC)CCCCCC.N#CC(=C=[N-])C#N, for which the activity coefficient (328.15 K) was 1.14 ± 0.07; the activity coefficient (338.15 K) is 1.15 ± 0.07; the activity coefficient (348.15 K) is 1.16 ± 0.07; the activity coefficient (358.15 K) is 1.17 ± 0.07; the activity coefficient (368.15 K) came out at 1.18 ± 0.08.
In the same order, the values of `C1=CCCCC1` [cyclohexene] + CCCCCCCCCCCCCC[P+](CCCCCC)(CCCCCC)CCCCCC.N#CC(=C=[N-])C#N are 0.906 ± 0.057, 0.922 ± 0.058, 0.938 ± 0.059, 0.958 ± 0.06 and 0.973 ± 0.061.
In the same order, the values of `C1CCCCCCC1` [cyclooctane] + CCCCCCCCCCCCCC[P+](CCCCCC)(CCCCCC)CCCCCC.N#CC(=C=[N-])C#N are 1.32 ± 0.09, 1.33 ± 0.09, 1.35 ± 0.09, 1.36 ± 0.09 and 1.37 ± 0.09.
In the same order, the values of `C1CCCC1` [cyclopentane] + CCCCCCCCCCCCCC[P+](CCCCCC)(CCCCCC)CCCCCC.N#CC(=C=[N-])C#N are 0.99 ± 0.062, 1 ± 0.06, 1.01 ± 0.06, 1.03 ± 0.06 and 1.04 ± 0.07.
Consider `CCCCCCCCCC` [decane] + CCCCCCCCCCCCCC[P+](CCCCCC)(CCCCCC)CCCCCC.N#CC(=C=[N-])C#N, for which the activity coefficient is, setting by setting: (328.15 K) 3.09 ± 0.21; (338.15 K) 3.1 ± 0.21; (348.15 K) 3.1 ± 0.21; (358.15 K) 3.1 ± 0.21; (368.15 K) 3.1 ± 0.21.
Turning to `CCOCC` [diethyl ether] + CCCCCCCCCCCCCC[P+](CCCCCC)(CCCCCC)CCCCCC.N#CC(=C=[N-])C#N, the activity coefficient is, setting by setting: (328.15 K) 0.943 ± 0.059; (338.15 K) 0.981 ± 0.062; (348.15 K) 1.01 ± 0.06; (358.15 K) 1.05 ± 0.07; (368.15 K) 1.08 ± 0.07.
In the case of `CC(C)OC(C)C` [diisopropyl ether] + CCCCCCCCCCCCCC[P+](CCCCCC)(CCCCCC)CCCCCC.N#CC(=C=[N-])C#N, the activity coefficient (328.15 K) stood at 1.5 ± 0.1; the activity coefficient (338.15 K) came out at 1.54 ± 0.1; the activity coefficient (348.15 K) was 1.58 ± 0.1; the activity coefficient (358.15 K) turned out to be 1.62 ± 0.11; the activity coefficient (368.15 K) is 1.66 ± 0.11.
Take `CCCOCCC` [dipropyl ether] + CCCCCCCCCCCCCC[P+](CCCCCC)(CCCCCC)CCCCCC.N#CC(=C=[N-])C#N: the activity coefficient was found to be 1.3 ± 0.08 (328.15 K); 1.35 ± 0.09 (338.15 K); 1.39 ± 0.09 (348.15 K); 1.43 ± 0.09 (358.15 K); 1.47 ± 0.1 (368.15 K).
Regarding `CCO` [ethanol] + CCCCCCCCCCCCCC[P+](CCCCCC)(CCCCCC)CCCCCC.N#CC(=C=[N-])C#N, the activity coefficient by setting is: (328.15 K) 0.462 ± 0.036; (338.15 K) 0.471 ± 0.037; (348.15 K) 0.477 ± 0.037; (358.15 K) 0.485 ± 0.037; (368.15 K) 0.49 ± 0.037.
The matching figures for `CCOC(C)=O` [ethyl acetate] + CCCCCCCCCCCCCC[P+](CCCCCC)(CCCCCC)CCCCCC.N#CC(=C=[N-])C#N: 0.653 ± 0.045, 0.678 ± 0.046, 0.699 ± 0.047, 0.724 ± 0.048 and 0.746 ± 0.049.
For `CCc1ccccc1` [ethylbenzene] + CCCCCCCCCCCCCC[P+](CCCCCC)(CCCCCC)CCCCCC.N#CC(=C=[N-])C#N, the activity coefficient reads like this: (328.15 K) 0.701 ± 0.047; (338.15 K) 0.729 ± 0.048; (348.15 K) 0.756 ± 0.05; (358.15 K) 0.783 ± 0.051; (368.15 K) 0.805 ± 0.052.
On to `CCCCCCC` [heptane] + CCCCCCCCCCCCCC[P+](CCCCCC)(CCCCCC)CCCCCC.N#CC(=C=[N-])C#N, for which the activity coefficient is 2.04 ± 0.14 (328.15 K); 2.06 ± 0.14 (338.15 K); 2.08 ± 0.14 (348.15 K); 2.1 ± 0.14 (358.15 K); 2.12 ± 0.14 (368.15 K).
On to `C=CCCCC` [hex-1-ene] + CCCCCCCCCCCCCC[P+](CCCCCC)(CCCCCC)CCCCCC.N#CC(=C=[N-])C#N, for which the activity coefficient amounted to 1.39 ± 0.09 (328.15 K); 1.42 ± 0.09 (338.15 K); 1.43 ± 0.09 (348.15 K); 1.46 ± 0.1 (358.15 K); 1.48 ± 0.1 (368.15 K).
On to `CCCCCC` [hexane] + CCCCCCCCCCCCCC[P+](CCCCCC)(CCCCCC)CCCCCC.N#CC(=C=[N-])C#N, for which the activity coefficient amounted to 1.77 ± 0.12 (328.15 K); 1.81 ± 0.12 (338.15 K); 1.83 ± 0.12 (348.15 K); 1.86 ± 0.13 (358.15 K); 1.88 ± 0.13 (368.15 K).
For `CO` [methanol] + CCCCCCCCCCCCCC[P+](CCCCCC)(CCCCCC)CCCCCC.N#CC(=C=[N-])C#N, the activity coefficient is, setting by setting: (328.15 K) 0.39 ± 0.034; (338.15 K) 0.399 ± 0.034; (348.15 K) 0.408 ± 0.034; (358.15 K) 0.417 ± 0.035; (368.15 K) 0.424 ± 0.035.
The matching figures for `CCCC(=O)OC` [methyl butanoate] + CCCCCCCCCCCCCC[P+](CCCCCC)(CCCCCC)CCCCCC.N#CC(=C=[N-])C#N: 0.652 ± 0.045, 0.683 ± 0.046, 0.709 ± 0.047, 0.739 ± 0.049 and 0.764 ± 0.05.
Regarding `COC(C)=O` [methyl ethanoate] + CCCCCCCCCCCCCC[P+](CCCCCC)(CCCCCC)CCCCCC.N#CC(=C=[N-])C#N, the activity coefficient by setting is: (328.15 K) 0.65 ± 0.044; (338.15 K) 0.669 ± 0.045; (348.15 K) 0.685 ± 0.046; (358.15 K) 0.704 ± 0.047; (368.15 K) 0.721 ± 0.048.
Consider `CCC(=O)OC` [methyl propanoate] + CCCCCCCCCCCCCC[P+](CCCCCC)(CCCCCC)CCCCCC.N#CC(=C=[N-])C#N, for which the activity coefficient (328.15 K) is 0.616 ± 0.043; the activity coefficient (338.15 K) was found to be 0.641 ± 0.044; the activity coefficient (348.15 K) turned out to be 0.663 ± 0.045; the activity coefficient (358.15 K) stood at 0.688 ± 0.046; the activity coefficient (368.15 K) is 0.711 ± 0.047.
In the same order, the values of `CC1CCCCC1` [methylcyclohexane] + CCCCCCCCCCCCCC[P+](CCCCCC)(CCCCCC)CCCCCC.N#CC(=C=[N-])C#N are 1.32 ± 0.09, 1.33 ± 0.09, 1.35 ± 0.09, 1.36 ± 0.09 and 1.38 ± 0.09.
In the same order, the values of `CCCCCCCCC` [nonane] + CCCCCCCCCCCCCC[P+](CCCCCC)(CCCCCC)CCCCCC.N#CC(=C=[N-])C#N are 2.66 ± 0.18, 2.67 ± 0.18, 2.69 ± 0.18, 2.7 ± 0.18 and 2.71 ± 0.18.
The matching figures for `C=CCCCCCC` [oct-1-ene] + CCCCCCCCCCCCCC[P+](CCCCCC)(CCCCCC)CCCCCC.N#CC(=C=[N-])C#N: 1.81 ± 0.12, 1.85 ± 0.12, 1.88 ± 0.13, 1.91 ± 0.13 and 1.94 ± 0.13.
